{"source": "patent US20120045543A1", "about": "“SHELF-LIFE EXTENSION OF SOUR DOUGH BAKED GOODS” (ERNST BÖCKER GMBH & CO. KG, priority 2009, published 2012)", "key": {"[1]": {"assay": "loss of propionic acid during baking", "type": "physicochemical", "conditions": "during baking and up to 24 h thereafter", "protocol": "Using the method known to those skilled in the art, the loss of propionic acid was determined in order to find out how much propionic acid is present in the various intermediates (dough versus baked product). […] This may be explained by the fact that at the end of the baking time the bread crumb has a temperature of at most 98° C.-106° C. Propionic acid has a boiling point of 141° C. and is therefore retained in the bread crumb during the baking to completion and also after cooling, and therefore can effect the desired protection against mold."}, "[2]": {"conditions": "cited from earlier work"}, "mold fungi": {"tested_on": "mold fungi", "conditions": "pH 5.5; depending on the fungal species; cited from earlier work"}, "P. roqueforti": {"tested_on": "P. roqueforti", "assay": "challenge experiment on inoculated bread slices", "type": "cell-based", "conditions": "based on initial flour weight", "text": "The inoculated bread slices, already after 2-4 days, had mycelia of P. roqueforti. In order to inhibit this mold fungus growth, a concentration of greater than 0.4% w/w propionic acid (based on the initial flour weight) was required."}, "A. niger": {"tested_on": "A. niger", "assay": "challenge experiment, mycelial growth on bread", "type": "cell-based"}, "mold": {"tested_on": "mold", "assay": "storage study of bread, mold-free time", "conditions": "bread with 0.4% propionic acid added"}, "bacteria": {"tested_on": "bacteria", "conditions": "cited from earlier work"}}, "data": [{"smiles": "CCC(=O)O", "note": "[propionic acid]", "values": [{"measurement": "concentration of propionic acid during baking", "setting": "[1]", "result": "remained roughly constant"}, {"measurement": "toxicity on oral intake", "setting": "[2]", "result": "not acutely toxic"}, {"measurement": "concentration inhibiting growth of mold fungi", "setting": "mold fungi", "result": "0.0125-1.25%"}, {"measurement": "concentration required to inhibit mold fungus growth", "setting": "P. roqueforti", "result": "greater than 0.4 % w/w"}, {"measurement": "chemical addition needed to achieve comparable preservation results", "setting": "A. niger; compared with co-fermentation giving 0.2% propionic and 0.2% acetic acid", "result": "at least 0.4%"}, {"measurement": "concentration suppressing growth of A. niger up to the end of the study", "setting": "A. niger; propionic acid alone, breads, challenge experiment", "result": 0.3, "unit": "%"}, {"measurement": "mold-free time longer compared with propionic acid-free bread", "setting": "mold", "result": 14, "unit": "days"}, {"measurement": "concentration necessary for inhibition of bacteria", "setting": "bacteria", "result": "1.6-6%"}]}]}
